ChEMBL document CHEMBL1201862, “PubChem BioAssay data set” (2004)
The source made the active and inactive calls.

What was measured:
[1] = inhibitors of Vif binding to APOBEC3G peptide, primary screen, biochemical, TR-FRET, GST-Vif 1-94, biotin-A3G peptide, dose response retest (AID 1117319); type: functional;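 further: TR-FRET signal of purified GST-Vif binding a biotinylated A3G peptide; inhibitors lower the FRET signal by blocking Vif and A3G binding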
[2] = P. falciparum Dd2 growth inhibitors, dose response, SYBR Green, cherry-picked samples (AID 1159567); type: functional, cell-based
[3] = microbe, parasite or virus in culture; type: functional; settings: Mycobacterium tuberculosis
[4] = inhibitors of intracellular T. cruzi replication, confirmation, NIH3T3 host cells, beta-gal luminescence (AID 2044); type: functional, cell-based;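 further: intracellular parasites grown in NIH/3T3 mouse fibroblasts as host cells; luminescent beta-galactosidase reporter signal from transgenic T. cruzi replicating inside host cells; inhibitors lower the luminescence signal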
[5] = Luminescence Cell-Based Dose Retest to Confirm Inhibitors of Cancer Stem Cells. [Related pubchem assays (depositor defined):AID2717, AID2721]; type: functional; settings: Homo sapiens
[6] = cytotoxicity toward NIH3T3 fibroblasts, dose response, counter-screen, cell-based, ATP luminescence, mouse fibroblasts (AID 2010); type: functional;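 further: cells exposed to compound for about 90 hours before reading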
[7] = biological target: T1, Short transient receptor potential channel 4 (Mus musculus, UniProt Q9QUQ5); assay: mouse TRPC4 channel inhibitors, dose response, cell-based, HEK293 TRPC4/mu-opioid, Fluo-4 calcium (AID 434942); type: functional;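 further: potency of inhibitors blocking the TRPC4 calcium response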
T1 sequence (Q9QUQ5 whole entry): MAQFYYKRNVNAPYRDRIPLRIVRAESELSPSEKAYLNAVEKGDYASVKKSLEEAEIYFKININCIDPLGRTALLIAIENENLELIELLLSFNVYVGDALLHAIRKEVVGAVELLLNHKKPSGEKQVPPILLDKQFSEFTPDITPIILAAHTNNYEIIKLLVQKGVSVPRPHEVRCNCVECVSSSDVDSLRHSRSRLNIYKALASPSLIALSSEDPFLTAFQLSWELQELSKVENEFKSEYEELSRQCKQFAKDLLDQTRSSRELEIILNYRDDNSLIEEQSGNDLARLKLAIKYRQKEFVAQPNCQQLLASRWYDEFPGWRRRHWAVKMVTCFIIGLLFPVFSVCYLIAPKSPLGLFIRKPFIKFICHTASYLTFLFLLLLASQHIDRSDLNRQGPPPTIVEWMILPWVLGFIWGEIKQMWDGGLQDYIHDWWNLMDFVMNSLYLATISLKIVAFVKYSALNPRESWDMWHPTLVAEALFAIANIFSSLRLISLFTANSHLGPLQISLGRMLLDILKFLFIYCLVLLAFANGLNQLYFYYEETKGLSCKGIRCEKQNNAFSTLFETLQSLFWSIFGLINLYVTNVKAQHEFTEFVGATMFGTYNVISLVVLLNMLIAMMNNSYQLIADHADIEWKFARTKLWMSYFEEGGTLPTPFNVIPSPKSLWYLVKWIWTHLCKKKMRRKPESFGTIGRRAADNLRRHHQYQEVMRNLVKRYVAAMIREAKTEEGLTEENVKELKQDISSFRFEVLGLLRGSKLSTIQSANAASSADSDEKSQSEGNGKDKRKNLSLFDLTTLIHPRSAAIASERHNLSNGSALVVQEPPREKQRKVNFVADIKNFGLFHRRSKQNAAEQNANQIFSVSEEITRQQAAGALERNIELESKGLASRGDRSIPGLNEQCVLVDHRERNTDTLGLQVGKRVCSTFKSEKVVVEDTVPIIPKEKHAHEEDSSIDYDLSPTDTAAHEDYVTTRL

[8] = biological target: T2, Heat shock factor protein 1 (Mus musculus, UniProt P38532); assay: inhibition of MG132-induced HSE-luciferase signal, confirmation, cell-based, NIH3T3, luminescence, dose retest (AID 2382); type: functional;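 further: NIH3T3 fibroblasts with HSF1-driven luciferase reporter stressed by proteasome inhibitor MG132; luminescence from HSF1-driven luciferase expression after 8 hours of MG132 stress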
T2 sequence (P38532 whole entry): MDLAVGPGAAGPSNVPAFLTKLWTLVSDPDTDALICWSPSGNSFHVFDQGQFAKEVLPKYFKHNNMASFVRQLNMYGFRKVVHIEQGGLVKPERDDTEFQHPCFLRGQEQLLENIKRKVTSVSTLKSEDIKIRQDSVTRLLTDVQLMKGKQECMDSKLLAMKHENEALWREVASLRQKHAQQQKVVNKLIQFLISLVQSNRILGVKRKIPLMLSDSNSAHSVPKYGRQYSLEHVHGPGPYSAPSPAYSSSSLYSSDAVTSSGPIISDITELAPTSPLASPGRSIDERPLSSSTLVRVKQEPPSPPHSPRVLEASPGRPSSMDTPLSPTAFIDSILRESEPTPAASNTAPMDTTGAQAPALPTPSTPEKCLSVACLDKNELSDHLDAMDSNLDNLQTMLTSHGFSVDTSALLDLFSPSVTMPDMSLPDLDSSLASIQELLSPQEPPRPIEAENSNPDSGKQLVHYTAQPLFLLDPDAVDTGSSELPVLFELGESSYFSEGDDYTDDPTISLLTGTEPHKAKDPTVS

Large T antigen = Large T antigen (Simian virus 40, UniProt P03070); type: functional, Betapolyomavirus macacae;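 further: Confirmatory-stage PubChem screen for compounds that inhibit SV40 T antigen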
Sequence of Large T antigen (P03070 whole entry): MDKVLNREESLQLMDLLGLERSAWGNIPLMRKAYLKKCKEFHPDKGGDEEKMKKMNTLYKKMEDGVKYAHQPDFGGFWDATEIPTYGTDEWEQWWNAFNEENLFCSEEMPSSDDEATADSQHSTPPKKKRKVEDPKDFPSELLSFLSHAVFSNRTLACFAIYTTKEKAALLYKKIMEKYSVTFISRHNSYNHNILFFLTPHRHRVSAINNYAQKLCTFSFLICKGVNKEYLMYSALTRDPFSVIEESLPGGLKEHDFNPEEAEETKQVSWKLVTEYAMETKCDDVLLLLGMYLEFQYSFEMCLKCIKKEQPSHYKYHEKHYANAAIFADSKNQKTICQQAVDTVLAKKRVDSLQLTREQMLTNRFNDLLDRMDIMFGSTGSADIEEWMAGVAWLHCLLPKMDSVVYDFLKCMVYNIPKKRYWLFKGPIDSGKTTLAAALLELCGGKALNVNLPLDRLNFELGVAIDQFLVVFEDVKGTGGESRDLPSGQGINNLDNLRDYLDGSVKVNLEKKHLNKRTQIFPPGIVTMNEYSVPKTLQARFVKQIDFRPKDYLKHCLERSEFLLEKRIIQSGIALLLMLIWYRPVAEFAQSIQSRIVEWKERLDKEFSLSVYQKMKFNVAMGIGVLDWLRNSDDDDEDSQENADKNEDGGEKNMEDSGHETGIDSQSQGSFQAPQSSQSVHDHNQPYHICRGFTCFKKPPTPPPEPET

[9] = biological target: T3, Acyl-homoserine lactone acylase PvdQ (Pseudomonas aeruginosa (strain LESB58), UniProt Q9I194); assay: P. aeruginosa PvdQ acylase inhibitors, dose response, biochemical, fluorescence, plate reader and imaging, cherry-picks (AID 493231)
T3 sequence (Q9I194 whole entry): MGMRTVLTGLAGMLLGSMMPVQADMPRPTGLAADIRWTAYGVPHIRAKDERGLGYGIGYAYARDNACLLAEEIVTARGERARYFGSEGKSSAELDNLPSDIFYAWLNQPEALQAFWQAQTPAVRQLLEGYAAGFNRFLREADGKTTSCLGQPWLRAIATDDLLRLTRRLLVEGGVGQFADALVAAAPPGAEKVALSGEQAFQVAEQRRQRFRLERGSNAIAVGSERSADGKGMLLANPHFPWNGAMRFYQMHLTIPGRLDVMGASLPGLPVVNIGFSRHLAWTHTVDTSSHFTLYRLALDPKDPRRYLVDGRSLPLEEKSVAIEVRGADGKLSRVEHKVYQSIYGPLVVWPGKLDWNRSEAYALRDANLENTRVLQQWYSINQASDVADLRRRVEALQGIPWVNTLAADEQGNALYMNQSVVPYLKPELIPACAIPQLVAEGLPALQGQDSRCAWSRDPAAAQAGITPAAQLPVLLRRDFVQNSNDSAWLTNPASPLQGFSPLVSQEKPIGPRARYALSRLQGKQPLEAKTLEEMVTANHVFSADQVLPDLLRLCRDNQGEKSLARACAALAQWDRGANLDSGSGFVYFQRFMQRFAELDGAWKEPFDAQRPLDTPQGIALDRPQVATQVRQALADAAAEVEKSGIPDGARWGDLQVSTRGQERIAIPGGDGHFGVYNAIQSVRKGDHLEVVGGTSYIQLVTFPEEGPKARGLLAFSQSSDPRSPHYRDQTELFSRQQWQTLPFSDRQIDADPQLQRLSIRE

[10] = cytotoxicity in HEK-293T cells, dose response, cytotoxicity control for BCR NF-kB inhibitor project, luminescence, B-cell screen hits (AID 489021); type: functional, cell-based;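 further: HEK-293T cells carrying an NF-kB luciferase reporter; cells exposed to compound for about 14 hours before viability readout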
[11] = Vero E6 cell cytotoxicity, dose response, cytotoxicity control for non-replicating M. tuberculosis project, secondary assay (AID 492998); type: functional, VeroE6; settings: Vero C1008
[12] = THP-1 cell cytotoxicity, dose response, cytotoxicity control for non-replicating M. tuberculosis project (AID 489025); type: functional
cells = type: functional
[13] = THP-1 cell cytotoxicity, dose response, cytotoxicity control for Vif-APOBEC3G degradation inhibitor project, THP-1 cells (AID 1117359); type: functional; settings: Human immunodeficiency virus 1, THP-1
[14] = inhibitors of SNCA 5'UTR-driven reporter translation, confirmation, H4 neuroglioma cells, luminescence (AID 1988); type: functional, cell-based
BJ [15] = assay: cytotoxicity toward BJ-TERT-LT-ST fibroblasts, dose response, cell-based, RAS-independent, luminescence (AID 1935); type: functional; settings: Homo sapiens;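 further: BJ fibroblasts immortalized with TERT plus LT and ST oncogenes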
BJ [16] = assay: cells; type: functional, cell-based; settings: Homo sapiens
[17] = cytotoxicity toward DRD oncogenic fibroblasts, dose response, cell-based, non-viral oncogenic, luminescence (AID 1934); type: functional; settings: Homo sapiens
[18] = Luminescence Cell-Based Dose Response HTS to Identify Inhibitors of 5'UTR Stem-Loop Driven Prion Protein mRNA Translation in H4 Neuroglioblastoma Cells. [Related pubchem assays: 1827 (Project Summary), 1813 (Primary HTS)]; type: functional
[19] = inhibitors of firefly luciferase expression or activity, dose response, H4 neuroglioma cells, luminescence (AID 1990); type: functional, cell-based
BJ [20] = assay: cytotoxicity toward BJ-TERT fibroblasts, dose response, cell-based, RAS-independent, luminescence (AID 1933); type: functional; settings: Homo sapiens
HEK293 = assay: inhibitors of LMP1-driven NF-kB reporter, dose response, cell-based, HEK293, luciferase, cherry-pick (AID 588343); type: functional; settings: Homo sapiens
Paired box protein Pax-8 = Paired box protein Pax-8 (Homo sapiens, UniProt Q06710); assay: inhibitors of PAX8-driven TPO luciferase reporter, dose response, RMG-I cells, cherry-pick (AID 687027); type: functional, cell-based;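 further: luciferase reporter driven by Pax8 target thyroperoxidase promoter measured by SteadyGlo luminescence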
Sequence of Paired box protein Pax-8 (Q06710 whole entry): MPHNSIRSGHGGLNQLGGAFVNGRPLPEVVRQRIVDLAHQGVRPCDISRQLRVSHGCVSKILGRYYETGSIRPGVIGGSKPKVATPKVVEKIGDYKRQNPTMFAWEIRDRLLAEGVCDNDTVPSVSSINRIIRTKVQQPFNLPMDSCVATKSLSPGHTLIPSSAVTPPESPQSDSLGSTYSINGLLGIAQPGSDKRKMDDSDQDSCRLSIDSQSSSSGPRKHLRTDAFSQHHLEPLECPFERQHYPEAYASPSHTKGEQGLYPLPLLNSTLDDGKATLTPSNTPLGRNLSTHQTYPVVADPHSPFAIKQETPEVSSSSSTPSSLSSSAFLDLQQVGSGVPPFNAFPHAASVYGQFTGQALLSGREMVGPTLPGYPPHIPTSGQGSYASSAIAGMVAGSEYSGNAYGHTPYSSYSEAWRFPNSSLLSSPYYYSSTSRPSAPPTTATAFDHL

[21] = NIH:OVCAR-3 ovarian cancer cell cytotoxicity, dose response, PAX8 inhibitor project, plate reader, dry powder samples (AID 743044); type: functional, cell-based
[22] = cytotoxicity in OVCAR8 ovarian cancer cells, dose response, PAX8 project, cell-based, plate reader, dry powder samples (AID 743197); type: functional; settings: OVCAR-8

COc1ccc(-c2[nH]c(-c3ccc(C)cc3)nc2SCC(=O)NCc2ccco2)cc1OC
IC50 [1]: > 100 µM (active)

C[C@H](CO)N1C[C@H](C)[C@H](CN(C)S(=O)(=O)c2ccccc2)Oc2cc(C#Cc3ccncc3)ccc2S1(=O)=O
AC50 [2]: 6.63 µM (active)

O=S(=O)(c1ccc(Cl)cc1)N1CCC(n2cnc3cc(C(F)(F)F)ccc32)CC1
CC50 [3]: > 40 µM (active) | EC50 [4]: 2.04 µM (active) | AC50 [5]: 0.552 µM (active) | EC50 [6]: > 60 µM (not active)

O=C1COc2ccc(N3C(=O)C=CC3=O)cc2N1
EC50 [7]: 6.68 µM (active) | EC50 [8]: 9.09 µM (active) | IC50 (Large T antigen): > 100 µM (active)

O=C(c1cnccn1)N1CC(=O)N2[C@@H](CO)[C@@H](c3ccc(C#CCc4ccccc4)cc3)[C@@H]2C1
AC50 [2]: 15.7 µM (active)

O=C1OC(c2ccccc2)c2ccccc21 (stereo not given)
AC50 [9]: 97.9 µM (active)

CCCOc1ccc(NC(=O)C(=O)NCCCn2ccnc2)cc1
IC50 [10]: > 80 µM (inactive)

CC(C)Oc1ccc(Nc2ncnc3ccccc23)cc1
AC50 [9]: 16.3 µM (active)

CC(=O)C1=C(C)NC(SCC(=O)c2ccc(F)cc2)=C(C#N)C1c1ccco1 (stereo not given)
CC50 [3]: 39.2 µM (active)

O=S(=O)(c1ccccc1)N1CC[C@@H]2[C@H](CO)Nc3ccc(C#CC4CCCCC4)cc3[C@@H]21
AC50 [2]: 6.42 µM (active)

FC(F)(F)c1nnc2ccc(Cl)nn12
CC50 [11]: > 20 µM (active) | CC50 [12]: 8.62 µM (active) | IC50 (cells): 1.82 µM (active)

Cc1nc([N+](=O)[O-])c(Br)n1Cc1ccccc1
CC50 [11]: > 20 µM (active) | CC50 [12]: 30.1 µM (active) | IC50 (cells): 9.77 µM (active)

O=C1NC(=O)N(Cc2ccco2)C(=O)/C1=C/NCc1ccc2c(c1)OCO2
IC50 [1]: > 100 µM (active)

CC(C)(C)c1ccc(C(=O)N2CCN(CCNC(=O)C(=O)NCc3ccc(Cl)cc3)CC2)cc1
CC50 [3]: > 40 µM (active) | EC50 [4]: 3.43 µM (active) | EC50 [6]: > 30 µM (not active)

CO[C@@H]1CN(C)C(=O)c2ccc(NC(=O)Nc3cc(Cl)cc(Cl)c3)cc2OC[C@H](C)NC[C@H]1C
AC50 [2]: 6.54 µM (active)

O=C(CSc1nnnn1-c1ccc2c(c1)CCC2)Nc1ccc2c(c1)OCCO2
CC50 [13]: > 40 µM (active)

COc1ccc(/N=c2\scc(-c3ccc(OC)cc3)n2CCO)cc1
CC50 [13]: 28.5 µM (active) | IC50 [1]: > 100 µM (active)

OCCNCc1cc(Br)ccc1OCc1ccc(Cl)cc1Cl
EC50 [7]: 3.35 µM (active)

O=C1c2ccccc2C(Nc2ccc(F)c(Cl)c2)N1c1ccccn1 (stereo not given)
IC50 [1]: > 100 µM (active)

COc1ccc(S(=O)(=O)Nc2cc3c(C(C)=O)c(C)oc3c3ccccc23)cc1
IC50 [10]: > 80 µM (inactive) | EC50 [14]: 0.294 µM (active) | EC50 (BJ [15]): 1.26 µM (active) | EC50 (BJ [16]): 4.49 µM (active) | EC50 [17]: 1.91 µM (active) | EC50 [18]: 2.67 µM (active) | EC50 [19]: 2.35 µM (active) | EC50 (BJ [20]): 1.59 µM (active)

Cc1nn(C(C)(C)C)c(C)c1/C=N/OC(=O)Nc1ccc(Cl)c(Cl)c1
IC50 [10]: > 80 µM (inactive) | EC50 [8]: < 0.16 µM (active) | AC50 (HEK293): 0.839 µM (active)

C[C@@H]1CN([C@H](C)CO)C(=O)c2cc(NC(=O)Nc3ccc(F)cc3)ccc2O[C@@H](C)CCCCO[C@@H]1CN(C)Cc1ccc(Cl)c(Cl)c1
AC50 (Paired box protein Pax-8): 8.1 µM (active) | AC50 [21]: 20 µM (active) | AC50 [22]: 38.7 µM (active)

Clc1ccc2scc(CN3CCCCC3)c2c1
AC50 [9]: 9.4 µM (active)

Cc1ccc2nc(-c3ccncc3)cc(-c3ccccc3)c2c1
CC50 [3]: > 40 µM (active)

CN1CCN(c2nc(-c3cccnc3)nc3scc(-c4ccccc4)c23)CC1
EC50 [7]: 11.9 µM (active)

CCCc1ccc(C2=Nn3c(nnc3C(C)C)SC2)cc1
CC50 [3]: > 40 µM (active)

Cc1ccc2c(c1C)NC(=O)C2(O)CC(=O)c1ccc2c(c1)OCO2 (stereo not given)
IC50 [1]: > 100 µM (active)
